Data taken from patent publication US20200131144A1, “AMINE OR (THIO)AMIDE CONTAINING LXR MODULATORS” (Phenex-FXR GmbH, priority 2017, published 2020).

Experiments:
[1] = target: T1, GST-LXRβ ligand-binding domain (Homo sapiens, UniProt P55055, INS174Q); assay: TR-FRETβ activity assay (NCoA3 coactivator peptide recruitment); type: biochemical; conditions: 1 μM 24(S)-25-epoxycholesterol as prestimulating agonist; inverse agonist unless *
T1 construct: amino acids 156-461; NP009052; made in house; host or cells: E. coli
T1 sequence (P55055 with tags, fused parts or gaps INS174Q limits assumed): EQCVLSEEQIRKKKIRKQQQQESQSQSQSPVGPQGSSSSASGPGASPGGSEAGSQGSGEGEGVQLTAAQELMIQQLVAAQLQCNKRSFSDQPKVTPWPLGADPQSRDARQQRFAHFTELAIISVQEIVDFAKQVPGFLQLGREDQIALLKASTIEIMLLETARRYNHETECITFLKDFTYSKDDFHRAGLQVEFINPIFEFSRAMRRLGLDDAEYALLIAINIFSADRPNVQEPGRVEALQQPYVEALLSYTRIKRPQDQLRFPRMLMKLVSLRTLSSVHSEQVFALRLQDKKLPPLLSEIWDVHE
Method: The tested compounds were usually dissolved, tested and stored as 20 mM stock solutions in DMSO. […] Sulfonyl acetic acid derivatives are shelf stable as solid at rt for long time as reported by Griesbrecht et al. (Synlett 2010:374) or Faucher et al. (J. Med. Chem. 2004; 47:18). TR-FRETβ Activity Assay Recombinant GST-LXRβ ligand-binding domain (LBD; amino acids 156-461; NP009052; SEQ ID NO:4) was expressed in E. coli and purified via gluthatione-sepharose affinity chromatography. N-terminally biotinylated NCoA3 coactivator peptide (SEQ ID NO:7) was chemically synthesized (Eurogentec). […] Finally, a detection mix was added containing anti GST-Tb cryptate (CisBio; 610SAXLB) and Streptavidin-XL665 (CisBio; 610SAXLB) as fluorescent donor and acceptor, respectively, as well as the coactivator peptide and LXRβ-LBD protein (SEQ ID NO:4). The reaction was mixed thoroughly, equilibrated for 1 h at 4° C. and vicinity of LXRβ and coactivator peptide was detected by measurement of fluorescence in a VictorX4 multiplate reader (PerkinElmer Life Science) using 340 nm as excitation and 615 and 665 nm as emission wavelengths. Assays were performed in triplicates. Final Assay Concentrations of Components: 240 mM KCl, 1 μg/μL BSA, 0.002% Triton-X-100, 125 pg/μL anti GST-Tb cryptate, 2.5 ng/μL Streptavidin-XL665, coactivator peptide (400 nM), LXRP protein ([…], i.e. 76 nM).

LXRβ full length (FL) = target: T2, LXRβ full length (FL) (Homo sapiens, UniProt P55055, INS174Q); assay: LXR Gal4 reporter transient transfection assay, mammalian two-hybrid, FL-M2H Gal4β; type: cell-based; conditions: HEK293 cells; inverse agonist unless *
T2 construct: the full length (FL) proteins of LXRα (amino acids 1-447); NP005684; NP009052; expressed in transfected cells; host or cells: HEK293
T2 sequence (P55055 with tags, fused parts or gaps INS174Q): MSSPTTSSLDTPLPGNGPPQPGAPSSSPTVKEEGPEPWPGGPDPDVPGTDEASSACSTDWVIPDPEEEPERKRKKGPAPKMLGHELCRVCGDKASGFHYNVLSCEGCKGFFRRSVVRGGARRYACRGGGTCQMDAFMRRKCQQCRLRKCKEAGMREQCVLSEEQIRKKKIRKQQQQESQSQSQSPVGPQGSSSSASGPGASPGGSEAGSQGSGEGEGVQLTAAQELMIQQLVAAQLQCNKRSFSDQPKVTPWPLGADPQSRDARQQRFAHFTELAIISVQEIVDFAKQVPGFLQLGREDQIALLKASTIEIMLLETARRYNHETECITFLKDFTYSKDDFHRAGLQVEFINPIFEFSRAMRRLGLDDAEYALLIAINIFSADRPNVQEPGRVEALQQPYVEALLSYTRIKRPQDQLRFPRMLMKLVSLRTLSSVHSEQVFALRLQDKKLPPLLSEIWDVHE
Method: (§1) The tested compounds were usually dissolved, tested and stored as 20 mM stock solutions in DMSO. Since sulfonyl acetic acid derivatives tend to decarboxylate under these conditions, these stock solutions were prepared, tested and stored as 20 mM DMSO stock solutions containing 100 mM trifluoroacetic acid (5 equivalents). Sulfonyl acetic acid derivatives are shelf stable as solid at rt for long time as reported by Griesbrecht et al. (Synlett 2010:374) or Faucher et al. (J. Med. Chem. 2004; 47:18).
(§2) LXR Gal4 Reporter Transient Transfection Assays
(§3) LXRα and LXRβ activity status was determined via detection of interaction with coactivator and corepressor proteins in mammalian two-hybrid experiments (M2H). For this, via transient transfection the full length (FL) proteins of LXRα (amino acids 1-447; NP005684; SEQ ID NO:1) or LXRβ-(amino acids 1-461; NP009052; SEQ ID NO:2) or the ligand-binding domains (LBD) of LXRα (amino acids 155-447 SEQ ID NO:3) or LXR (amino acids 156-461; SEQ ID NO:4) were expressed from pCMV-AD (Stratagene) as fusions to the transcriptional activation domain of NFkB. As cofactors, domains of either the steroid receptor coactivator 1 (SRC1; amino acids 552-887; SEQ ID NO:5) or of the corepressor NCoR (amino acids 1906-2312; NP006302; SEQ ID NO:6) were expressed as fusions to the DNA binding domain of the yeast transcription factor GAL4 (from pCMV-BD; Stratagene). Interaction was monitored via activation of a coexpressed Firefly Luciferase Reporter gene under control of a promoter containing repetitive GAL4 response elements (vector pFRLuc; Stratagene). Transfection efficiency was controlled via cotransfection of constitutively active pRL-CMV Renilla reniformis luciferase reporter (Promega). HEK293 cells were grown in minimum essential medium (MEM) with 2 mM L-glutamine and Earle's balanced salt solution supplemented with 8.3% fetal bovine serum, 0.1 mM non-essential amino acids, 1 mM sodium pyruvate, at 37° C. in 5% CO2. 3.5×10^4 cells/well were plated in 96-well cell culture plates in growth medium supplemented with 8.3% fetal bovine serum for 16-20 h to—90% confluency. For transfection, medium was taken off and LXR and cofactor expressing plasmids as well as the reporter plasmids are added in 30 μL OPTIMEM/well including polyethylene-imine (PEI) as vehicle. Typical amounts of plasmids transfected/well: pCMV-AD-LXR (5 ng), pCMV-BD-cofactor (5 ng), pFR-Luc (100 ng), pRL-CMV (0.5 ng). Compound stocks were prepared in DMSO, prediluted in MEM to a total volume of 120 μL, and added 4 h after addition of the transfection mixture (final vehicle concentration not exceeding 0.2%). Cells were incubated for additional 16 h, lysed for 10 min in 1×Passive Lysis Buffer (Promega) and Firefly and Renilla luciferase activities were measured sequentially in the same cell extract using buffers containing D-luciferine and coelenterazine, respectively. Measurements of luminescence were done in a BMG-luminometer.

LXRα full length (FL) = target: T3, LXRα full length (FL) (Homo sapiens, UniProt Q13133); assay: LXR Gal4 reporter transient transfection assay, mammalian two-hybrid, FL-M2H Gal4α; type: cell-based; conditions: HEK293 cells; inverse agonist unless *
T3 construct: the full length (FL) proteins of LXRα (amino acids 1-447); NP005684; expressed in transfected cells; host or cells: HEK293
T3 sequence (Q13133 1-447): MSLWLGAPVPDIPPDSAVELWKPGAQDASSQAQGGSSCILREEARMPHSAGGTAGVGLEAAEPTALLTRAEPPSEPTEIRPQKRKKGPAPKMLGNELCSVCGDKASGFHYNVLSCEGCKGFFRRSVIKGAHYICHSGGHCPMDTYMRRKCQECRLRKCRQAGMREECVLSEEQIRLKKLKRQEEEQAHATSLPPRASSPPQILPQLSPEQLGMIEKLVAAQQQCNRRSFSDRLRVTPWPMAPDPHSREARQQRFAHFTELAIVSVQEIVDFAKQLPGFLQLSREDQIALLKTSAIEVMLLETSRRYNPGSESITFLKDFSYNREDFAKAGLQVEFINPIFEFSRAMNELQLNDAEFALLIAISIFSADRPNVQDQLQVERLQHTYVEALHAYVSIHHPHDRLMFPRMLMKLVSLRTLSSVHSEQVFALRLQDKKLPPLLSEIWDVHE
Method: as §1, §2, §3

EC50 [1]	EC50 (LXRβ full length (FL))	EC50 (LXRα full length (FL))	Structure (SMILES)
100 to 1000 nM	< 100 nM	< 100 nM	Cc1ccc2ccccc2c1C(=O)N(Cc1ccc(-c2cccc(C(C)(C)CC(=O)O)c2)cc1)Cc1ccc(C(F)(F)F)o1 [27/9]
1000 to 10000 nM	< 100 nM	< 100 nM	COC(C)(C(=O)O)c1cccc(-c2ccc(CN(Cc3ccc(C(F)(F)F)o3)C(=O)c3c(C)ccc4ccccc34)cc2)c1 (stereo not drawn) [27/11]
1000 to 10000 nM	< 100 nM	100 to 1000 nM	CC(C)(C(=O)O)c1cccc(-c2ccc(CN(Cc3ccc(C(F)(F)F)o3)C(=O)c3cccc4ncncc34)cc2)c1 [27/13]
100 to 1000 nM	100 to 1000 nM	1000 to 10000 nM	CC(C)(C(=O)O)c1cccc(-c2ccc(CN(Cc3ccc(C(F)(F)F)o3)C(=O)c3cccc4cnncc34)cc2)c1 [27/14]
100 to 1000 nM	< 100 nM	< 100 nM	CC(C)(C(=O)O)c1cccc(-c2ccc(CN(Cc3ccc(C(F)(F)F)o3)Cc3cccc4c3CCOC4)cc2)c1 [27/15]
100 to 1000 nM	< 100 nM	< 100 nM	CC(C)(C(=O)O)c1cccc(-c2ccc(CN(Cc3ccc(C(F)(F)F)o3)Cc3cccc4c3CCCO4)cc2)c1 [27/16]
100 to 1000 nM	< 100 nM	< 100 nM	CN(C)c1ncc(CN(Cc2ccc(-c3cccc(C(C)(C)C(=O)O)c3)cc2)Cc2ccc(C(F)(F)F)o2)c2ccccc12 [27/18]
100 to 1000 nM	< 100 nM	< 100 nM	COc1ncc(CN(Cc2ccc(-c3cccc(C(C)(C)C(=O)O)c3)cc2)Cc2ccc(C(F)(F)F)o2)c2ccccc12 [27/19]
100 to 1000 nM	< 100 nM	< 100 nM	Cc1ccc2ccc(C)c(CN(Cc3ccc(-c4cccc(C(C)(C)C(=O)O)c4)cc3)Cc3ccc(C(F)(F)F)o3)c2c1 [27/20]
100 to 1000 nM	< 100 nM	< 100 nM	Cc1ccc2c(CN(Cc3ccc(-c4cccc(C(C)(C)C(=O)O)c4)cc3)Cc3ccc(C(F)(F)F)o3)c(C)ccc2c1 [27/21]
100 to 1000 nM	< 100 nM	100 to 1000 nM	Cc1c(CN(Cc2ccc(-c3cccc(C(C)(C)C(=O)O)c3)cc2)Cc2ccc(C(F)(F)F)o2)c2ccccc2[nH]c1=O [27/22]
1000 to 10000 nM	< 100 nM	100 to 1000 nM	COc1ccc2c(CN(Cc3ccc(-c4cccc(C(C)(C)C(=O)O)c4)cc3)Cc3ccc(C(F)(F)F)o3)cc(C)cc2c1 [27/24]
1000 to 10000 nM	< 100 nM	100 to 1000 nM	Cc1ccc2ccc(C(N)=O)cc2c1CN(Cc1ccc(-c2cccc(C(C)(C)C(=O)O)c2)cc1)Cc1ccc(C(F)(F)F)o1 [27/25]
100 to 1000 nM	< 100 nM	< 100 nM	Cc1ccc2ccc(C#N)cc2c1CN(Cc1ccc(-c2cccc(C(C)(C)C(=O)O)c2)cc1)Cc1ccc(C(F)(F)F)o1 [27/27]
1000 to 10000 nM	< 100 nM	100 to 1000 nM	Cc1ccc2ccccc2c1C(=O)N(CCc1cccc(Br)c1)Cc1ccc(-c2cccc(C(C)(C)C(=O)O)c2)cc1 [27/30]
< 100 nM	< 100 nM	< 100 nM	CC(C)(C(=O)O)c1cccc(-c2ccc(CN(Cc3ccc(C(F)(F)F)o3)C(=O)c3c4ccccc4nc4ccccc34)cc2)c1 [27/31]
< 100 nM	< 100 nM	< 100 nM	CCc1cc(C)c(CN(Cc2ccc(-c3cccc(C(C)(C)C(=O)O)c3)cc2)Cc2ccc(C(F)(F)F)o2)c(C)c1 [27/32]
100 to 1000 nM	< 100 nM	< 100 nM	Cc1cc(C)c(CN(Cc2ccc(-c3cccc(C(C)(C)C(=O)O)c3)cc2)Cc2ccc(C(F)(F)F)o2)c2c1CCC2 [27/33]
1000 to 10000 nM	100 to 1000 nM	1000 to 10000 nM	Cc1cc(C)c(CN(Cc2ccc(-c3cccc(S(=O)(=O)CC(=O)O)c3)cc2)Cc2ccc(C(F)(F)F)o2)c(C)c1C [27/34]
1000 to 10000 nM	100 to 1000 nM	1000 to 10000 nM	CCc1cc(C)cc(C)c1CN(Cc1ccc(-c2cccc(S(=O)(=O)CC(=O)O)c2)cc1)Cc1ccc(C(F)(F)F)o1 [27/35]
100 to 1000 nM	< 100 nM	100 to 1000 nM	Cc1ccc2ccccc2c1C(=O)N(Cc1ccc(-c2cncc(C(C)(C)C(=O)O)c2)cc1)Cc1ccc(C(F)(F)F)o1 [27/37]
< 100 nM	< 100 nM	100 to 1000 nM	CC(C)(C(=O)O)c1cccc(-c2ccc(CN(Cc3ccc(C(F)(F)F)o3)C(C)(C)c3cccc4ccccc34)cc2)c1 [27/39]
1000 to 10000 nM	1000 to 10000 nM	1000 to 10000 nM	O=C(O)CS(=O)(=O)c1cccc(-c2ccc(CN(Cc3ccc(C(F)(F)F)o3)C(=O)c3cccc4ccccc34)cc2)c1 [27/41]
